# Source: patent US20100137170A1, “DUAL USE WELL TREATMENT COMPOSITION” (JACAM CHEMICALS, LLC, priority 2008, published 2010)
# Assay: accelerated −30° F. storage test (crystal formation)
# Type: physicochemical
# Details: 1.5% by volume in the Example composition
# Protocol: Additional morpholine derivatives were also tested in lieu of the morpholine in the above table, at the same amount (1.5% by volume) and by the accelerated −30° F. storage test. These derivatives were N-methylmorpholine, N-ethylmorpholine, N-methylmorpholine oxide, and N-aminopropylmorpholine.
row,SMILES,result of accelerated storage test with derivative in lieu of morpholine
1,CN1CCOCC1 [N-methylmorpholine],satisfactory results
2,NCCCN1CCOCC1 [N-aminopropylmorpholine],satisfactory results
3,CCN1CCOCC1 [N-ethylmorpholine],satisfactory results
4,C[N+]1([O-])CCOCC1 [N-methylmorpholine oxide],satisfactory results

# Assay: substitute ingredients in lieu of morpholine in THP/THPS-amino phosophono chelant compositions (crystal deposition)
# Type: physicochemical
# Details: ingredients employed alone and in various combinations in THP/THPS-amino phosophono chelant compositions
# Source text: During the course of development of the present invention, a number of different ingredients were used in lieu of morpholine in THP/THPS-amino phosophono chelant compositions. None of these substitute materials were successful.
row,SMILES,crystal deposition of product with ingredient used in lieu of morpholine
1,N [ammonium hydroxide],prone to crystal deposition
2,[Na+].[OH-] [sodium hydroxide],prone to crystal deposition
3,CO [methyl alcohol],prone to crystal deposition
4,CC(C)O [isopropyl alcohol],prone to crystal deposition
